# Source: PubChem BioAssay AID1963962 (Molecular Pharmacology Branch, DTP, NCI, 2024)
# System: 967376-340-R-J2-PDC multicell spheroid viability
# Assay: Anticancer human tumor 967376-340-R-J2-PDC patient-derived colon adenocarcinoma cell line growth inhibition [PI3K]
# Conditions: for IC50: curve of first compound; for viability, T/C: stronger effect = lower value
# How it was run: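 Multi-cell spheroids combine tumor cells with HUVEC and human MSCs, treated with targeted agents alone or with inavolisib, alpelisib, duvelisib or copanlisib. Concentrations fall in half-log steps from at or near clinical Cmax, or from 10 microM where Cmax is unknown; viability read-out.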
# [1] = second compound 0.0316 µM, first compound 0.0316 µM
# [2] = second compound 0.0316 µM, first compound 0.1 µM
# [3] = second compound 0.0316 µM, first compound 0.316 µM
# [4] = second compound 0.0316 µM, first compound 1 µM
# [5] = second compound 0.0316 µM, first compound 3.16 µM
# [6] = second compound 0.0316 µM, first compound 10 µM
# [7] = second compound 0.1 µM, first compound 0.0316 µM
# [8] = second compound 0.1 µM, first compound 0.1 µM
# [9] = second compound 0.1 µM, first compound 0.316 µM
# [10] = second compound 0.1 µM, first compound 1 µM
# [11] = second compound 0.1 µM, first compound 3.16 µM
# [12] = second compound 0.1 µM, first compound 10 µM
# [13] = second compound 0.316 µM, first compound 0.0316 µM
# [14] = second compound 0.316 µM, first compound 0.1 µM
# [15] = second compound 0.316 µM, first compound 0.316 µM
# [16] = second compound 0.316 µM, first compound 1 µM
# [17] = second compound 0.316 µM, first compound 3.16 µM
# [18] = second compound 0.316 µM, first compound 10 µM
# [19] = second compound 1 µM, first compound 0.0316 µM
# [20] = second compound 1 µM, first compound 0.1 µM
# [21] = second compound 1 µM, first compound 0.316 µM
# [22] = second compound 1 µM, first compound 1 µM
# [23] = second compound 1 µM, first compound 3.16 µM
# [24] = second compound 1 µM, first compound 10 µM
# 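Also: spheroids exposed to agents for 7 days before read-out.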
# 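For viability, T/C in this document: luminescence used as surrogate of cell viability.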
structure (smiles),measurement,setting,value
CC1(C)CCC(Nc2ncc(C(F)(F)F)c(-c3c[nH]c4c(P(C)(C)=O)c(C#N)ccc34)n2)CN1 (stereo unspecified) + CC(Nc1ncnc2nc[nH]c12)c1cc2cccc(Cl)c2c(=O)n1-c1ccccc1,IC50,second compound 0.0316 µM,> 10000 nM
same,IC50,second compound 0.1 µM,> 10000 nM
same,IC50,second compound 0.316 µM,> 10000 nM
same,IC50,second compound 1 µM,> 10000 nM
same,IC50,second compound 3.16 µM,> 10000 nM
same,IC50,second compound 10 µM,4790 nM
same,"viability, T/C",[1],103%
same,"viability, T/C",[2],90.2%
same,"viability, T/C",[3],80.3%
same,"viability, T/C",[4],69.2%
same,"viability, T/C",[5],68.3%
same,"viability, T/C",[6],55.4%
same,"viability, T/C",[7],108%
same,"viability, T/C",[8],92.8%
same,"viability, T/C",[9],79.6%
same,"viability, T/C",[10],75.2%
same,"viability, T/C",[11],76.6%
same,"viability, T/C",[12],55.7%
same,"viability, T/C",[13],83.5%
same,"viability, T/C",[14],91.6%
same,"viability, T/C",[15],93%
same,"viability, T/C",[16],60.9%
same,"viability, T/C",[17],71.4%
same,"viability, T/C",[18],64.3%
same,"viability, T/C",[19],90.6%
same,"viability, T/C",[20],93.5%
same,"viability, T/C",[21],64.1%
same,"viability, T/C",[22],78.1%
same,"viability, T/C",[23],68.2%
same,"viability, T/C",[24],63.9%
same,"viability, T/C","second compound 3.16 µM, first compound 0.0316 µM",84.6%
same,"viability, T/C","second compound 3.16 µM, first compound 0.1 µM",73.6%
same,"viability, T/C","second compound 3.16 µM, first compound 0.316 µM",85%
same,"viability, T/C","second compound 3.16 µM, first compound 1 µM",73.4%
same,"viability, T/C","second compound 3.16 µM, first compound 3.16 µM",73%
same,"viability, T/C","second compound 3.16 µM, first compound 10 µM",62.3%
same,"viability, T/C","second compound 10 µM, first compound 0.0316 µM",72.3%
same,"viability, T/C","second compound 10 µM, first compound 0.1 µM",73.8%
same,"viability, T/C","second compound 10 µM, first compound 0.316 µM",70.2%
same,"viability, T/C","second compound 10 µM, first compound 1 µM",63.5%
same,"viability, T/C","second compound 10 µM, first compound 3.16 µM",56.8%
same,"viability, T/C","second compound 10 µM, first compound 10 µM",39.4%
CNC(=O)c1ccc(N2C(=S)N(c3ccc(C#N)c(C(F)(F)F)c3)C(=O)C2(C)C)cc1F + COc1c(OCCCN2CCOCC2)ccc2c3n(c(=NC(=O)c4cnc(N)nc4)nc12)CCN3,IC50,second compound 0.00316 µM,> 10000 nM
same,IC50,second compound 0.01 µM,> 10000 nM
same,IC50,second compound 0.0316 µM,> 10000 nM
same,IC50,second compound 0.1 µM,> 10000 nM
same,IC50,second compound 0.316 µM,388 nM
same,IC50,second compound 1 µM,< 31.6 nM
same,"viability, T/C","second compound 0.00316 µM, first compound 0.0316 µM",92%
same,"viability, T/C","second compound 0.00316 µM, first compound 0.1 µM",90%
same,"viability, T/C","second compound 0.00316 µM, first compound 0.316 µM",73.3%
same,"viability, T/C","second compound 0.00316 µM, first compound 1 µM",93%
same,"viability, T/C","second compound 0.00316 µM, first compound 3.16 µM",113%
same,"viability, T/C","second compound 0.00316 µM, first compound 10 µM",102%
same,"viability, T/C","second compound 0.01 µM, first compound 0.0316 µM",90%
same,"viability, T/C","second compound 0.01 µM, first compound 0.1 µM",82.7%
same,"viability, T/C","second compound 0.01 µM, first compound 0.316 µM",65.7%
same,"viability, T/C","second compound 0.01 µM, first compound 1 µM",87.3%
same,"viability, T/C","second compound 0.01 µM, first compound 3.16 µM",105%
same,"viability, T/C","second compound 0.01 µM, first compound 10 µM",120%
same,"viability, T/C",[1],78%
same,"viability, T/C",[2],64.9%
same,"viability, T/C",[3],64.5%
same,"viability, T/C",[4],60.9%
same,"viability, T/C",[5],79.9%
same,"viability, T/C",[6],66%
same,"viability, T/C",[7],65.7%
same,"viability, T/C",[8],64.3%
same,"viability, T/C",[9],64.5%
same,"viability, T/C",[10],51%
same,"viability, T/C",[11],53.3%
same,"viability, T/C",[12],64.6%
same,"viability, T/C",[13],50.3%
same,"viability, T/C",[14],50.3%
same,"viability, T/C",[15],54.5%
same,"viability, T/C",[16],34.8%
same,"viability, T/C",[17],37.5%
same,"viability, T/C",[18],54.2%
same,"viability, T/C",[19],35%
same,"viability, T/C",[20],36.5%
same,"viability, T/C",[21],39.8%
same,"viability, T/C",[22],34.6%
same,"viability, T/C",[23],36.6%
same,"viability, T/C",[24],28.1%
Cn1cnc2c(F)c(Nc3ccc(Br)cc3Cl)c(C(=O)NOCCO)cc21 + COc1c(OCCCN2CCOCC2)ccc2c3n(c(=NC(=O)c4cnc(N)nc4)nc12)CCN3,IC50,second compound 0.00316 µM,2850 nM
same,IC50,second compound 0.01 µM,2080 nM
same,IC50,second compound 0.0316 µM,1010 nM
same,IC50,second compound 0.1 µM,332 nM
same,IC50,second compound 0.316 µM,< 9.49 nM
same,IC50,second compound 1 µM,< 9.49 nM
same,"viability, T/C","second compound 0.00316 µM, first compound 0.00949 µM",85.7%
same,"viability, T/C","second compound 0.00316 µM, first compound 0.03 µM",79.2%
same,"viability, T/C","second compound 0.00316 µM, first compound 0.0949 µM",87.5%
same,"viability, T/C","second compound 0.00316 µM, first compound 0.3 µM",67.9%
same,"viability, T/C","second compound 0.00316 µM, first compound 0.949 µM",80.5%
same,"viability, T/C","second compound 0.00316 µM, first compound 3 µM",48.7%
same,"viability, T/C","second compound 0.01 µM, first compound 0.00949 µM",106%
same,"viability, T/C","second compound 0.01 µM, first compound 0.03 µM",86.6%
same,"viability, T/C","second compound 0.01 µM, first compound 0.0949 µM",66.9%
same,"viability, T/C","second compound 0.01 µM, first compound 0.3 µM",79.9%
same,"viability, T/C","second compound 0.01 µM, first compound 0.949 µM",87%
same,"viability, T/C","second compound 0.01 µM, first compound 3 µM",33.4%
same,"viability, T/C","second compound 0.0316 µM, first compound 0.00949 µM",80.1%
same,"viability, T/C","second compound 0.0316 µM, first compound 0.03 µM",61.2%
same,"viability, T/C","second compound 0.0316 µM, first compound 0.0949 µM",51.7%
same,"viability, T/C","second compound 0.0316 µM, first compound 0.3 µM",53.2%
same,"viability, T/C","second compound 0.0316 µM, first compound 0.949 µM",57.6%
same,"viability, T/C","second compound 0.0316 µM, first compound 3 µM",15.3%
same,"viability, T/C","second compound 0.1 µM, first compound 0.00949 µM",49.2%
same,"viability, T/C","second compound 0.1 µM, first compound 0.03 µM",59.9%
same,"viability, T/C","second compound 0.1 µM, first compound 0.0949 µM",49.6%
same,"viability, T/C","second compound 0.1 µM, first compound 0.3 µM",53.1%
same,"viability, T/C","second compound 0.1 µM, first compound 0.949 µM",19.8%
same,"viability, T/C","second compound 0.1 µM, first compound 3 µM",1.95%
same,"viability, T/C","second compound 0.316 µM, first compound 0.00949 µM",28.5%
same,"viability, T/C","second compound 0.316 µM, first compound 0.03 µM",65.1%
same,"viability, T/C","second compound 0.316 µM, first compound 0.0949 µM",46.9%
same,"viability, T/C","second compound 0.316 µM, first compound 0.3 µM",23.9%
same,"viability, T/C","second compound 0.316 µM, first compound 0.949 µM",1.63%
same,"viability, T/C","second compound 0.316 µM, first compound 3 µM",1.2%
same,"viability, T/C","second compound 1 µM, first compound 0.00949 µM",44.2%
same,"viability, T/C","second compound 1 µM, first compound 0.03 µM",25.5%
same,"viability, T/C","second compound 1 µM, first compound 0.0949 µM",32.3%
same,"viability, T/C","second compound 1 µM, first compound 0.3 µM",16.7%
same,"viability, T/C","second compound 1 µM, first compound 0.949 µM",1.19%
same,"viability, T/C","second compound 1 µM, first compound 3 µM",1.28%
